According to patent publication US7897620B2, “Methods of using anti-inflammatory compounds” (Cambridge Enterprise Limited, priority 2007, dated 2011):
Where two headings read alike, the source gives them in different places.

Columns and labels:
[1] = Pharmacokinetics following a single dose in rat (LC-MS/MS of blood, one-compartment model); format: in vivo; details: for AUC(0-inf): single oral dose 3 mg/kg in 1% CMC, read-out: Exposure (AUC 0->infinity) (converted); for clearance: read-out: Clearance; for bioavailability: po, 3 mg/kg
Method: Compounds were administered as a single dose (either 1 mg/kg bodyweight in 5% DMSO via the intravenous route or 3 mg/kg in 1% carboxymethylcellulose via the oral route) to three adult rats (using different rats for each compound and each route of administration).
Blood was then sampled at various time points (including just prior to dose administration) out to 24 hrs post dose, and the level of the various compounds was assessed using a validated LC-MS/MS assay. Briefly, 3-5 μl of the deproteinised sample was applied to a Waters Atlantis (C18 20×2.1 mm, 3 μm bead size) reverse phase chromatography column equilibrated in 0.1% formic acid in 95:5 water:actetonitrile. Over 3.5 minutes bound material was gradient eluted reaching 0.1% formic acid in 5:95 water:acetonitrile, followed by a step gradient back to 0.1% formic acid in 95:5 water:acetonitrile. The column eluent was then directed to an Applied Biosystems API 4000/3200 QTrap MS/MS mass spectrometer, with a Turbolonspray™ ion source operating in positive ion mode. The interface temperature was set at 650° C., with a 40 ms dwell time for each MRM transition, monitoring the following ions:
The internal standard in each determination was the related compound (S)-3-(2′,2′-dimethylpropanoylamino)-caprolactam, which was spiked into the sample prior to deproteinization. The lower limit of quantitation (LLOQ) for this assay was 2.4 ng/ml for each compound except (I′), where it was 38.1 ng/ml.
Following LC-MS/MS analysis of each collected sample, the pharmacokinetic disposition of the compound was modelled using Kinetica software, a well known software package for such applications.

[2] = Distribution of compounds into tissues and unchanged parent in urine 24 hrs after a single oral dose; format: in vivo; details: rat; for concentration at 24 h: 24 hrs after single oral dose 3 mg/kg in 1% CMC, nd = not detected, LLOQ 2.4 ng/g
Method: Urine was collected from rats exposed to a single oral dose (3 mg/kg in 1% CMC) of each compound over a 24 hour period in metabolic cages. The pooled urine sample was then subjected to full scan mass spectral analysis, using the same LC-MS conditions as described in example 1 above. Further MS-MS analysis of the product ions was then performed, and likely fragmentations/re-arrangements assigned from the publicly available Metabolite ID database.
To provide a quantitative estimate of the degree of metabolism suffered by each of the compounds tested, the amount of unchanged parent compound in urine was measured using the same validated LC-MS assay described in example 1, using (S)-3-(2′,2′-dimethylpropanoylamino)-caprolactam as an internal standard. In addition, the level of compounds in various target tissues was also determined.

[3] = test system: IL-8 induced neutrophil migration; experiment: ChemoTx transwell migration assay, IL-8 induced migration of neutrophils; format: cell-based; details: maximal dose of chemoattractant, read-out: ED50 IL-8 neutrophils
Method: (§1) In principle, this assay consists of two chambers separated by a porous membrane. The chemoattractant is placed in the lower compartment and the cells are placed in the upper compartment. After incubation for a period at 37° C. the cells move towards the chemoattractant, and the number of cells in the lower compartment is proportional to the chemoattractant activity (relative to a series of controls).
(§2) Next, the chemoattractant solution to be placed in the lower compartment is prepared. For example, MCP-1 is diluted in GBSS+BSA to give a final concentration of 25 ng/ml. This is divided into two pots, as for the cell suspension. To one pot, the test compound is added to the same final concentration as was added to the cell suspension, while to the other pot an equal volume of GBSS+BSA plus vehicle as appropriate (e,g. not more than 1% DMSO) is added. Alternatively, other chemokines may be used (SDF-1α at 7.5 ng/ml; RANTES at 50 ng/ml; IL-8 at 10 ng/ml using neutrophils as the target cell population). In each case it is important to determine (in a separate experiment) the concentration of each chemokine which causes maximal stimulation of migration of the chosen target leukocyte population. […]
(§3) The number of cells migrated into the lower chamber under each condition can then be determined by a number of methods, including direct counting, labelling with fluorescent or radioactive markers or through the use of a vital dye. […] 3 μl of stock MTT solution are added to each well, and then the plate is incubated at 37° C. for 1-2 hours during which time dehydrogenase enzymes within the cells convert the soluble MTT to an insoluble blue formazan product that can be quantified spectrophotometrically. […]
(§4) At the end of this incubation, the liquid is carefully removed from the lower chambers, taking care not to disturb the precipitated formazan product. After allowing to air dry briefly, 20 μl of DMSO is added to each lower chamber to solubilise the blue dye, and absorbance at 595 nm is determined using a 96-well plate reader. […]

[4] = test system: C5a induced neutrophil migration; experiment: ChemoTx transwell migration assay, C5a induced migration of neutrophils (non-chemokine chemoattractant); format: cell-based; details: highest concentration tested 1 μM, read-out: ED50 C5a neutrophils
Method: as §1, §2, §3, §4

[5] = blood, Rat, Intravenous PK (1 mg/kg), read-out: Half-life
[6] = blood, Rat, Oral PK (3 mg/kg), read-out: Half-life
[7] = blood, rat, averaged across three rats
[8] = plasma, iv, 1 mg/kg, rat, one-compartment model, averaged across three rats, read-out: t½ (mins) dominant plasma half-life
[9] = rat, blood, iv, 1 mg/kg, Rat, Intravenous PK (1 mg/kg)
[10] = rat, blood, iv, 1 mg/kg, Rat, Intravenous PK (1 mg/kg), read-out: Vss
[11] = rat, blood, iv, 1 mg/kg, rat, one-compartment model, averaged across three rats, read-out: Vss (L/kg) volume of distribution
[12] = rat, blood, Rat, Oral PK (3 mg/kg), read-out: Bioavailability (%)
[13] = rat, blood, rat, 1 mg/kg iv in 5% DMSO and 3 mg/kg oral in 1% CMC, one-compartment model, averaged across three rats, read-out: F (%) oral bioavailability
[14] = rat, blood, iv, 1 mg/kg, rat, one-compartment model, averaged across three rats
[15] = rat, one-compartment model, averaged across three rats

Row | SMILES | half-life [1, 5] [min] | AUC ([1]; blood, Rat, Oral PK (3 mg/kg)) [ng·h/mL] | Tmax ([1]; blood, Rat, Oral PK (3 mg/kg)) [min] | half-life [1, 6] [min] | AUC(0-inf) [1, 7] [ng·h/mL] | half-life [1, 8] [min] | clearance [1, 9] [mL/min/kg] | Vd [1, 10] [L/kg] | Vd [1, 11] [L/kg] | bioavailability [1, 12] [%] | bioavailability [1, 13] [%] | EC50 [3] [nM] | EC50 [4] [nM] | clearance [1, 14] [mL/min/kg] | further results
1 | CC(C)(C)C(=O)N[C@H]1CCCNC1=O [Compound (I′), 3-(2′,2′-dimethylpropanoylamino)-tetrahydropyridin-2-one] | 196 | 15600 | 15 to 120 | 226 | 15600 | 196 | 2.6 | 0.7 | 0.7 | 81 | 69 | 0.6 | > 1000 | – | half-life ([1]; plasma, intravenous, 1 mg/kg, rat, read-out: plasma half-life): > 180 min; clearance, times lower than for the other lactam BSCIs ([1]; rat): more than 10 fold; clearance ([1]; rat, blood, intravenous, 1 mg/kg, rat, one-compartment model, averaged across three rats): 2.6 mL/min/kg; exposure relative to the next best compound (V) ([1]; rat, oral): ~20 fold; plasma half-life, fold longer ([1]; rat, versus the other compounds examined): 10 fold; concentration at 24 h ([2]; brain, read-out: Level of compound in Brain): 1.6 ng/g; concentration at 24 h ([2]; heart, read-out: Level of compound in Heart): 5.3 ng/g; concentration at 24 h ([2]; kidney, read-out: Level of compound in Kidney): 5.1 ng/g; concentration at 24 h ([2]; liver, read-out: Level of compound in Liver): 3.6 ng/g; concentration at 24 h ([2]; lung, read-out: Level of compound in Lung): 21.9 ng/g; concentration at 24 h ([2]; muscle, read-out: Level of compound in Muscle): 3.1 ng/g
2 | CC(C)(C)S(=O)(=O)N[C@H]1CCCCNC1=O [(IV), 3-(1′,1′-dimethylethylsulfonylamino)-caprolactam] | – | – | – | – | 690 | 19 | – | – | 0.6 | – | 45 | – | – | 32 | fraction of the injected dose recovered unchanged in urine ([2]; 24 hrs, single oral dose 3 mg/kg): less than 10%
3 | O=C1NCCCC[C@@H]1NC(=O)C12CC3CC(CC(O)(C3)C1)C2 [(V), 3-(3′-hydroxyadamantyl-1-carbonylamino)-caprolactam] | 24 | 952 | 15 | 24 | 952 | 24 | 33 | 0.8 | 1.4 | 59 | 59 | 0.5 | > 1000 | 31 | –
4 | O=C1NCCCC[C@@H]1NC(=O)C12CC3CC(CC(C3)C1)C2 [(II), 3-(adamantane-1-carbonylamino)-caprolactam] | – | – | – | – | 7.95 | – | – | – | – | – | – | 0.6 | > 1000 | 84 | F (%) oral bioavailability ([1]; rat, 1 mg/kg iv in 5% DMSO and 3 mg/kg oral in 1% CMC, one-compartment model, averaged across three rats): <1%; Vss (L/kg) volume of distribution [1, 15]: 0.8 L/kg; t½ (mins) dominant plasma half-life [1, 15]: 16 min
